Assay [1] has as its system phosphorylation of FLT3 and its down-stream effector STAT5. As to the kind of experiment: Western blotting of p-FLT3 and p-STAT5 in MV4-11 cells. In kind it is cell-based. The note with it: Homo sapiens; at 30 nM treatment, 3 hours, FLT3-ITD positive MV4-11 leukemia cells; read-out: inhibition activity against phosphorylation of FLT3 and its down-stream effector STAT5. An outline of the steps: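 MV4-11 cells held overnight in IMDM with 0.1% FBS, then 3 million cells treated with compound for 3 h. Whole lysates immunoblotted for p-FLT3 (Tyr-591), p-STAT5 (Tyr-694) and actin. Band intensities at 30 nM compared to DMSO control; % inhibition = (1 − relative intensity) × 100.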

Assay [2] has as its system MV4-11 human acute myeloid leukemia cell with FLT3-ITD mutation. As to the kind of experiment: MV4-11 cell proliferation assay (CellTiter 96). To be noted: Homo sapiens, MV4-11, 72 h, MV4-11 cells, 72 hours treatment, CellTiter96; read-out: anti-proliferation activity MV4-11 (FLT3-ITD), IC50 ranking. In kind it is cell-based. The procedure, abridged: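 Cells seeded at 6500/well in IMDM with 10% heat-inactivated FBS, left overnight at 37 °C, 5% CO2, then exposed to increasing compound concentrations for 72 h. Viability read as absorbance at 490 nm after 2–4 h with CellTiter96 AQueous One reagent.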

The target in the next assay is T1, FLT3 kinase (Homo sapiens, UniProt P36888).
T1 construct: purchased SignalChem
T1 sequence (P36888 27-993): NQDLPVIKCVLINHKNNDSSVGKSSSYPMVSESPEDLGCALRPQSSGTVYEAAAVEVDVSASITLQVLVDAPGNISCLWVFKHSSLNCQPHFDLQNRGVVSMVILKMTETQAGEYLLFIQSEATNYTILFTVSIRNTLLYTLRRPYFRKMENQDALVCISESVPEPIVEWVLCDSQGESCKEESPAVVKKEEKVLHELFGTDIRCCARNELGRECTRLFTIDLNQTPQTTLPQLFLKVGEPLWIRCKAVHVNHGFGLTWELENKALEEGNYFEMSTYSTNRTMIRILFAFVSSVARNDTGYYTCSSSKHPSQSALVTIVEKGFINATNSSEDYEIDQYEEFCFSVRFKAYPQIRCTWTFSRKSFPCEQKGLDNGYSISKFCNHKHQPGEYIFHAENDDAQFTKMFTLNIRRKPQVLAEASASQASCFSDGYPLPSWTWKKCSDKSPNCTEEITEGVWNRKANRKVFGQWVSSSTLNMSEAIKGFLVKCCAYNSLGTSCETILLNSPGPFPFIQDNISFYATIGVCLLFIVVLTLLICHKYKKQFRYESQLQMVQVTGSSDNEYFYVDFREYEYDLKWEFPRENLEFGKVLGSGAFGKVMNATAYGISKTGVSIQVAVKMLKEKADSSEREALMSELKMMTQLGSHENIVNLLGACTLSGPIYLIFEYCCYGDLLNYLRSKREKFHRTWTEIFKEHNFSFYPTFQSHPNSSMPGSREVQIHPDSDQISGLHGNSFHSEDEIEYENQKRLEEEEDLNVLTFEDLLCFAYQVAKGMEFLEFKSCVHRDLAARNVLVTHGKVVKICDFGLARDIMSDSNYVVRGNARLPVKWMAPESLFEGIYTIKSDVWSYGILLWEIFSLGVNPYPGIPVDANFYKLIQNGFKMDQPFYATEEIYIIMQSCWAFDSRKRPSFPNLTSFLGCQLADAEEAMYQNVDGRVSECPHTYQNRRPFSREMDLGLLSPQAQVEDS
Put plainly: FLT3 kinase assay (AlphaScreen). The class given is biochemical. The note with it: read-out: Ranking of IC50 values, FLT3. The procedure, abridged:
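Recombinant FLT3 (1.5 ng) phosphorylated biotinylated poly(Glu4:Tyr1) with 10 μM ATP in MOPS pH 7.0 buffer containing 10 mM MgCl2, 30 min at 30 °C, stopped with EDTA. Product detected by AlphaScreen; IC50 from duplicate serial dilutions.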

Take `Cn1ncc2ccc(-c3n[nH]c4c3Cc3sc(-c5ccc(N)nc5)cc3-4)cc21` [Compound 92, 5-(3-(1-methyl-1H-indazol-6-yl)-1,4-dihydro-thieno[2′,3′:4,5]cyclopenta [1,2-c]pyrazol-6-yl) pyridin-2-amine]: the inhibition at 0.03 µM in assay [1] is over 50%. The IC50 in assay [2] was under 30 nM; on FLT3 kinase, under 1 nM.

In the case of `COc1ccc(-c2cc3c(s2)Cc2c(-c4ccc5cnn(C)c5c4)n[nH]c2-3)cn1` [Compound 4, 6-(6-methoxypyridin-3-yl)-3-(1-methyl-1H-indazol-6-yl)-1,4-dihydrothieno [2′,3′:4,5]cyclopenta[1,2-c] pyrazole], the IC50 in assay [2] was 100 to 300 nM; at FLT3 kinase it was 1 to 10 nM.

Take `Cn1ncc2ccc(-c3n[nH]c4c3Cc3sc(-c5ccc(CN6CCOCC6)cc5OC(F)(F)F)cc3-4)cc21` [Compound 90, 4-(4-(3-(1-methyl-1H-indazol-6-yl)-1,4-dihydro-thieno[2′,3′:4,5]cyclopenta [1,2-c]pyrazol-6-yl)-3-(trifluoromethoxy)benzyl) morpholine]: the IC50 in assay [2] was 300 to 1000 nM; at FLT3 kinase it was 1 to 10 nM.

On to `Cc1cc(CN2CCOCC2)ccc1-c1cc2c(s1)Cc1c(-c3ccc4cnn(C)c4c3)n[nH]c1-2` [Compound 91, 4-(3-methyl-4-(3-(1-methyl-1H-indazol-6-yl)-1,4-dihydrothieno [2′,3′:4,5]cyclopenta [1,2-c]pyrazol-6-yl)benzyl)morpholine], for which the IC50 in assay [2] lay in the range of 100 to 300 nM; at FLT3 kinase it was 1 to 10 nM.

Consider `Cc1ccc(-c2cc3c(s2)Cc2c(-c4ccc5cn[nH]c5c4)n[nH]c2-3)cn1` [Compound 30, 3-(1H-indazol-6-yl)-6-(6-methylpyridin-3-yl)-1,4-dihydrothieno[2′,3′:4,5] cyclopenta[1,2-c]pyrazole], for which the inhibition at 0.03 µM in assay [1] was over 50%. Besides, the IC50 in assay [2] lay in the range of 30 to 100 nM.

For `CN1CCN(c2ccc(-c3cc4c(s3)Cc3c(-c5ccc6cnn(C)c6c5)n[nH]c3-4)cn2)CC1` [Compound 85, 3-(1-methyl-1H-indazol-6-yl)-6-(6-(4-methyl-piperazin-1-yl)pyridin-3-yl)-1,4-dihydrothieno [2′,3′:4,5]cyclopenta [1,2-c]pyrazole], the values for the IC50 (in assay [2]; on FLT3 kinase) were under 30 nM and under 1 nM, respectively.

Turning to `Nc1ccc(-c2cc3c(s2)Cc2c(-c4ccc5cn[nH]c5c4)n[nH]c2-3)cn1` [Compound 3, 5-(3-(1H-indazol-6-yl)-1,4-dihydrothieno[2′,3′:4,5]cyclopenta[1,2-c]pyrazol-6-yl)pyridin-2-amine], the inhibition at 0.03 µM in assay [1] was over 50%. Moreover, the IC50 in assay [2] was under 30 nM.

`COc1ccc(-c2cc3c(s2)Cc2c(-c4ccc5cn[nH]c5c4)n[nH]c2-3)cn1` [Compound 2, 3-(1H-indazol-6-yl)-6-(6-methoxypyridin-3-yl)-1,4-dihydrothieno[2′,3′:4,5] cyclopenta[1,2-c]pyrazole]: the inhibition at 0.03 µM in assay [1] was over 50%. The IC50 in assay [2] fell in the range of 30 to 100 nM.

Turning to `Cn1ncc2ccc(-c3n[nH]c4c3Cc3sc(-c5ccc(CN6CCNCC6=O)cc5)cc3-4)cc21` [Compound 101, 1-(4-(3-(1-methyl-1H-indazol-6-yl)-1,4-dihydro-thieno[2′,3′:4,5]cyclopenta [1,2-c]pyrazol-6-yl)benzyl)piperazin-2-one], the inhibition at 0.03 µM in assay [1] is over 50%. Besides, the IC50 in assay [2] is under 30 nM.

For `Cn1ncc2ccc(-c3n[nH]c4c3Cc3sc(-c5ccc(CN6CCOCC6)c(F)c5F)cc3-4)cc21` [Compound 88, 4-(2,3-difluoro-4-(3-(1-methyl-1H-indazol-6-yl)-1,4-dihydrothieno [2′,3′:4,5]cyclopenta [1,2-c]pyrazol-6-yl)benzyl)morpholine], the IC50 in assay [2] lay in the range of 300 to 1000 nM; at FLT3 kinase, 1 to 10 nM.

On to `Cc1n[nH]c2cc(-c3n[nH]c4c3Cc3sc(-c5ccc(CN6CCOCC6)cc5)cc3-4)ccc12` [Compound 81, 4-(4-(3-(3-methyl-1H-indazol-6-yl)-1,4-dihydro-thieno[2′,3′:4,5]cyclopenta [1,2-c]pyrazol-6-yl)benzyl)morpholine], for which the IC50 in assay [2] was 100 to 300 nM; at FLT3 kinase it was 1 to 10 nM.

Turning to `Cn1ncc2ccc(-c3n[nH]c4c3Cc3sc(-c5ccc(N6CCOCC6)nc5)cc3-4)cc21` [Compound 82, 4-(5-(3-(1-methyl-1H-indazol-6-yl)-1,4-dihydro-thieno[2′,3′:4,5]cyclopenta [1,2-c]pyrazol-6-yl)pyridin-2-yl)morpholine], the IC50 in assay [2] fell in the range of 100 to 300 nM; at FLT3 kinase, 1 to 10 nM.

On to `Nc1ccc(-c2cc3c(s2)Cc2c(-c4ccc5[nH]ncc5c4)n[nH]c2-3)cn1` [Compound 40, 5-(3-(1H-indazol-5-yl)-1,4-dihydrothieno [2′,3′:4,5]cyclopenta [1,2-c]pyrazol-6-yl) pyridin-2-amine], for which, in assay [1], the inhibition at 0.03 µM was over 50%. The IC50 in assay [2] is under 30 nM.

Consider `CN1CCN(Cc2ccc(-c3cc4c(s3)Cc3c(-c5ccc6cnn(C)c6c5)n[nH]c3-4)cc2)CC1` [Compound 84, 3-(1-methyl-1H-indazol-6-yl)-6-(4-((4-methylpiperazin-1-yl)methyl)phenyl)-1,4-dihydrothieno [2′,3′:4,5]cyclopenta [1,2-c]pyrazole], for which the inhibition at 0.03 µM in assay [1] is over 50%. Besides, the results for the IC50 (in assay [2]; on FLT3 kinase) were under 30 nM and under 1 nM, respectively.

Turning to `Cn1ncc2ccc(-c3n[nH]c4c3Cc3sc(-c5ccc(CN6CCOC6=O)cc5)cc3-4)cc21` [Compound 62, 3-(4-(3-(1-methyl-1H-indazol-6-yl)-1,4-dihydro-thieno[2′,3′:4,5]cyclopenta [1,2-c]pyrazol-6-yl)benzyl)oxazolidin-2-one], the inhibition at 0.03 µM in assay [1] is over 50%. In assay [2], the IC50 was under 30 nM.

With `Cn1nnc2ccc(-c3n[nH]c4c3Cc3sc(-c5ccc(CN6CCOCC6)cc5)cc3-4)cc21` [Compound 89, 4-(4-(3-(1-methyl-1H-benzo[d][1,2,3]triazol-6-yl)-1,4-dihydrothieno [2′,3′:4,5]cyclopenta [1,2-c]pyrazol-6-yl)benzyl)morpholine], the inhibition at 0.03 µM in assay [1] was over 50%. In addition, the IC50 in assay [2] is 30 to 100 nM; on FLT3 kinase, 1 to 10 nM.

Consider `COc1ccc(-c2cc3c(s2)Cc2c(-c4ccc5[nH]ncc5c4)n[nH]c2-3)cn1` [Compound 1, 3-(1H-indazol-5-yl)-6-(6-methoxypyridin-3-yl)-1,4-dihydrothieno[2′,3′:4,5] cyclopenta[1,2-c]pyrazole], for which the inhibition at 0.03 µM in assay [1] was over 50%. Moreover, the IC50 in assay [2] is 30 to 100 nM.

Take `Cn1ncc2ccc(-c3n[nH]c4c3Cc3sc(-c5ccnc(Cl)c5)cc3-4)cc21` [Compound 86, 6-(2-chloropyridin-4-yl)-3-(1-methyl-1H-indazol-6-yl)-1,4-dihydrothieno [2′,3′:4,5]cyclopenta [1,2-c]pyrazole]: the IC50 is 30 to 100 nM in assay [2] and 1 to 10 nM at FLT3 kinase.

`CN1CCN(c2cc(-c3cc4c(s3)Cc3c(-c5ccc6cnn(C)c6c5)n[nH]c3-4)ccn2)CC1` [Compound 87, 3-(1-methyl-1H-indazol-6-yl)-6-(2-(4-methyl-piperazin-1-yl)pyridin-4-yl)-1,4-dihydrothieno [2′,3′:4,5]cyclopenta [1,2-c]pyrazole]: the results for the IC50 (in assay [2]; at FLT3 kinase) were 30 to 100 nM and under 1 nM, respectively.

Turning to `Cc1ccc(-c2cc3c(s2)Cc2c(-c4ccc5[nH]ncc5c4)n[nH]c2-3)cn1` [Compound 36, 3-(1H-indazol-5-yl)-6-(6-methylpyridin-3-yl)-1,4-dihydrothieno[2′,3′:4,5] cyclopenta[1,2-c]pyrazole], in assay [1], the inhibition at 0.03 µM was over 50%. Also, in assay [2], the IC50 was under 30 nM.

On to `CN(C)Cc1ccc(-c2cc3c(s2)Cc2c(-c4ccc5cnn(C)c5c4)n[nH]c2-3)cn1` [Compound 93, N,N-dimethyl-1-(5-(3-(1-methyl-1H-indazol-6-yl)-1,4-dihydrothieno [2′,3′:4,5]cyclopenta [1,2-c]pyrazol-6-yl)pyridin-2-yl)methanamine], for which the IC50 lay in the range of 30 to 100 nM in assay [2] and 1 to 10 nM at FLT3 kinase.

These data come from patent US12448394B2, “Heterocyclic pyrazole derivatives as type III receptor tyrosine kinase inhibitors” (DEVELOPMENT CENTER FOR BIOTECHNOLOGY, priority 2019, dated 2025).
